Laboratory results: patent publication US20180280480A1, “COMPOSITIONS AND PEPTIDES HAVING DUAL GLP-1R AND GLP-2R AGONIST ACTIVITY” (priority 2014, published 2018)

How the values were obtained:
Type in all cases: in vivo
C57BL/6J mice [1] = test: Acute food intake in C57BL/6J mice; conditions: for Total food intake (g/animal): Day 0: 0-[…] (lights off), mean ± SEM
Procedure: The C57BL/6J mice arrived 7 days prior to the initiation of the study. During these days, animals were handled daily to accustom them to the experimental paradigm. At Day −1, the mice were randomised according to body weight to participate in one of following drug treatment groups (n=6-8 in each group): Group 1: vehicle. […] Group 3-5: SEQ ID NO 3; 3.0; 1.0; 0.3 mg/kg. Group 6-8: SEQ ID NO 4; 3.0; 1.0; 0.3 mg/kg. Group 9-11: SEQ ID NO 5; 3.0; 1.0; 0.3 mg/kg. Group 12-14: SEQ ID NO 6; 3.0; 1.0; 0.3 mg/kg. Group 15-17: SEQ ID NO 7; 3.0; 1.0; 0.3 mg/kg. Three days prior to initiation of dosing, all animals were handled daily and accustomed to the experimental conditions by subcutaneous mock injections (i.e. nipping the skin of the back). Baseline food intake was monitored four days prior to the study. Mice were randomized according to body weight on Day −1. Animals were subjected to two separate injections. First acute dose was administered prior to lights out at Day 0 and food intake was monitored 24 hours post dosing. On Day 3, mice were re-randomised into new treatment groups and dosed prior to lights out. Food intake was monitored 24 hours post dosing. Body weight was measured daily from Day −5 and throughout the study. The study was terminated on Day 5. […] Dosing took place prior to lights out in the afternoon (between 13.30 and 14.00). Doses were administered subcutaneously (dose volume 5 ml/kg). Food intake data was collected using the HM-2 system, an online computerized feeding system using digital weighing cells. Food intake and body weight were measured from Day −7 and throughout the study. […]

C57BL/6J mice [2] = test: GLP1R-GLP2R dual agonist compound study: gut wet weight
Text: On study day 8, the mice were terminated and the GI tract was removed for determination of the gut wet weight. The gut wet weight results are listed below in Table 12.

[3] = tested on: Diet Induced Obese (DIO) Sprague-Dawley Rats; test: Body weight and whole body fat mass in DIO Sprague-Dawley rats; conditions: for Body weight: mean ± S.E.M.; for Whole body fat mass: EchoMRI
Procedure: Thirty (30) male Sprague-Dawley rats (7 weeks of age) were purchased from Taconic (Denmark) and transferred to the Gubra animal unit. During the acclimatization period, the rats were housed two per cage under a 12:12 light dark cycle (lights on from 04.00-16.00 h) at controlled temperature conditions (22±1° C.; 50±10% relative humidity). Throughout the study the rats had ad libitum access to a two choice diet—regular Altromin 1324 rodent chow (Brogaarden, Denmark) and a paste made from Chocolate spread (Nutella, Ferrero Italy), peanut butter and powdered regular Altromin 1324 rodent chow (Brogaarden, Denmark). The animals were kept on the diet for 65 weeks before experimentation. Animals were switched to single housing during the entire study period (day −6 to 25).
The animals were randomized into three study groups (n=10 per group) based on body weight recorded on day −1 to participate in one of the following groups: Group 1: Vehicle, SC, BID. Group 2: SEQ ID NO 6, 82 nmol/kg (day 2-7), 164 nmol/kg (day 8-14) and 328 nmol/kg (day 15-25), SC, BID. […] Dosing took place in the morning (between 06.00 and 08.00 h) and prior to lights out in the afternoon (between 13.30 and 14.00 h). Doses were administered subcutaneously with a dose volume 1 ml/kg. All rats were handled prior to experimentation to acclimatize the animals to handling and procedures. Body weight was measured from day −3 to termination on day 25. Total body fat mass was analyzed before study start (day −1) and before termination (study day 25) by non-invasive EchoMRI-900 (EchoMRI, USA). On day 23 of the study, rats were subjected to an oral glucose tolerance test (OGTT). Animals were mildly fasted as all food was removed 4 hours prior to the oral glucose load. Vehicle and compounds were administered subcutaneously (SC) 2 hours prior to the OGTT. At t=0 rats received an oral glucose load (2 g/kg; 4 ml/kg; […], Fresenius Kabi, Sweden). Glucose was given as gavage via a gastrically-placed tube connected to a syringe ensuring accurate dosing. Blood glucose was measured from tail vein blood before (t=−120 and 0 min, baseline) and after glucose administration (t=15, 30, 60 and 120 min). Blood samples was collected into 10 μl heparinized glass capillary tubes and immediately suspended in buffer (0.5 ml of glucose/lactate system solution (EKF-diagnostics, Germany) and analyzed for glucose on the test day using a BIOSEN c-Line glucose meter (EKF-diagnostics, Germany) according to manufacturer's instructions. On study day 25, the rats were terminated and the GI tract was removed. Intestines were flushed with saline, weighed and then fixated in 4% PFA for determination of small and large intestinal volume by stereological methods as described by Hansen et al. 2013, Am J Transl Res 5(3): 347-58).

[4] = tested on: Diet Induced Obese (DIO) Sprague-Dawley Rats; test: Oral glucose tolerance test in DIO Sprague-Dawley rats
[5] = Day 25, 328 nmol/kg (escalated 82, 164, 328 nmol/kg SC BID)

R^1-HGDGSFTSELSTYLDALAARDFIAWLIQTKITDR^2 [SEQ ID NO 6]
Total food intake (g/animal) (C57BL/6J mice [1]; single SC dose 0.3 mg/kg): 0.33 ± 0.17 g/animal | Total food intake (g/animal) (C57BL/6J mice [1]; single SC dose 1 mg/kg): 0.13 ± 0.08 g/animal | Total food intake (g/animal) (C57BL/6J mice [1]; single SC dose 3 mg/kg): 0.06 ± 0.03 g/animal | ranking as inhibitor of food intake after […] (C57BL/6J mice [1]; among SEQ ID NO 3-7, Table 4): most effective inhibitor of food intake | food intake after […] compared to vehicle (C57BL/6J mice [1]; single dose 0.3-3 mg/kg): significantly reduced food intake | Gut wet weight (C57BL/6J mice [2]; Day 8, 3.0 mg/kg BID SC, mean ± S.E.M.): 3.8 ± 0.3 g | gut wet weight compared to vehicle and teduglutide (C57BL/6J mice [2]; dosed twice daily for 8 days): significantly increased the gut wet weight | Body weight ([3]; Day 0 (baseline), 328 nmol/kg group (escalated 82, 164, 328 nmol/kg SC BID)): 962.7 ± 27.8 g | Whole body fat mass [3, 5]: 292.2 ± 25.4 g | Body weight [3, 5]: 803.9 ± 35.5 g | Whole body fat mass ([3]; Day −1 (baseline), 328 nmol/kg group (escalated 82, 164, 328 nmol/kg SC BID)): 400.3 ± 18.3 g | effect on glucose tolerance ([4]; DIO rats, Table 15): improved glucose tolerance | Blood glucose during an oral glucose tolerance test. Area under the curve (AUC) −45 to 240 min. ([4]; Day 23, 328 nmol/kg, mean ± S.E.M.): 1731 ± 77.0 mmol·min/L
